Entries after “also recorded” stand apart in the source; their conditions may differ. Where a name gives a salt, the structure may show the parent alone. Marks after values point to notes of the source that are not given here.
How the values were obtained:
[1] = tested on: rodents; conditions: forced-swim, elevated plus maze, fear-potentiated startle; cited from earlier work
[2] = tested on: rats; conditions: oral; cited from earlier work
[3] = tested on: κ-opioid receptor; conditions: in vivo, compared with other κ-opioid antagonists; cited from earlier work
[4] = biological target: T1, cloned human κ-opioid receptor (Homo sapiens, UniProt P41145); experiment: Inhibition of U69,593-stimulated [35S]GTPγS binding; conditions: for κ, U69,593 Ke / κ, U69,593 Ke (nM): antagonism of U69,593-stimulated [35S]GTPγS binding, CHO cells, means ± SE, at least three experiments; for δ/κ: κ selectivity relative to δ
T1 sequence (P41145 whole entry): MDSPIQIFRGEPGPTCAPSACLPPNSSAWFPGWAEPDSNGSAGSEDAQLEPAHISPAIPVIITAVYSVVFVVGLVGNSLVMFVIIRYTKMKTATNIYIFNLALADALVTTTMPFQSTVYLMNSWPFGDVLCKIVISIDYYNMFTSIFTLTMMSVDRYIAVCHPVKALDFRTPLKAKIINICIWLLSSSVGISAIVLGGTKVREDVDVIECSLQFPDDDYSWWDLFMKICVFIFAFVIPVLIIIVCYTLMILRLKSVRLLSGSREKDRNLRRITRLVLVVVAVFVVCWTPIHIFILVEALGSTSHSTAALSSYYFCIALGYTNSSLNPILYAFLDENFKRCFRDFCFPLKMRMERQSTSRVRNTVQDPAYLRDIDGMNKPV
Procedure: (§1) Test compound assay concentrations ranged from 1-5000 nM, depending on their activity. The Ke values were calculated using the formula: Ke=[L]/DR−1, where [L] is the concentration of test compound and DR is the ratio of agonist EC50 value in the presence or absence of test compound, respectively.

[5] = biological target: T1, cloned human κ-opioid receptor; experiment: Intrinsic activity in the [35S]GTPγS binding assay; type: biochemical; design: expressed in transfected cells; host or cells: CHO cells; conditions: at 10 μM
Procedure: as §1

[6] = biological target: T2, cloned human δ-opioid receptor (Homo sapiens, UniProt P41143); experiment: Intrinsic activity in the [35S]GTPγS binding assay; type: biochemical; conditions: at 10 μM
T2 construct: expressed in transfected cells; host or cells: CHO cells
T2 sequence (P41143 whole entry): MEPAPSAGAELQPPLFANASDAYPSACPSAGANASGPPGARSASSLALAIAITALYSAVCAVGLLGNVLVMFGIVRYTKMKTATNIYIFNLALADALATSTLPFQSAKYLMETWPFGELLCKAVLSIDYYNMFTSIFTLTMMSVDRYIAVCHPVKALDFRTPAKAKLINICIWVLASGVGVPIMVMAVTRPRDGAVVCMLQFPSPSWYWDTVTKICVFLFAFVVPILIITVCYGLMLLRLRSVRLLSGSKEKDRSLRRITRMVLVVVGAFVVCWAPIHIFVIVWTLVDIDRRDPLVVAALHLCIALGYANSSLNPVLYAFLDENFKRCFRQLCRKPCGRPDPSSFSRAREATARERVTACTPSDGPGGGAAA
Procedure: as §1

[7] = biological target: T3, cloned human μ-opioid receptor (Homo sapiens, UniProt P35372); experiment: Intrinsic activity in the [35S]GTPγS binding assay; type: biochemical; conditions: at 10 μM
T3 construct: expressed in transfected cells; host or cells: CHO cells
T3 sequence (P35372 whole entry): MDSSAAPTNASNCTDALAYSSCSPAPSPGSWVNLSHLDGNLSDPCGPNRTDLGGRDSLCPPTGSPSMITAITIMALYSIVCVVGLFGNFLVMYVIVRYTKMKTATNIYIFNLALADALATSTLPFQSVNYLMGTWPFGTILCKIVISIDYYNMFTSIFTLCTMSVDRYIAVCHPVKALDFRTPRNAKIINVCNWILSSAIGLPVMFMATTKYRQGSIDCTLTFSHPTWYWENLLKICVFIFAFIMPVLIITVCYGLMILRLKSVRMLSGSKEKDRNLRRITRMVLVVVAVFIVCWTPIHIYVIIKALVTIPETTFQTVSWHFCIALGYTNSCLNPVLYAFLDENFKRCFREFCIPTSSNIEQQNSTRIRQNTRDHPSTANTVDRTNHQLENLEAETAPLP
Procedure: as §1

[8] = biological target: T1, cloned human κ-opioid receptor; design: expressed in transfected cells; host or cells: CHO cells; conditions: previously reported; cited from earlier work
[9] = tested on: mice; conditions: oral; cited from earlier work
[10] = biological target: T3, cloned human μ-opioid receptor; experiment: Inhibition of DAMGO-stimulated [35S]GTPγS binding; type: biochemical; conditions: for μ, DAMGO Ke (nM): antagonism of DAMGO-stimulated [35S]GTPγS binding, CHO cells, means ± SE, at least three experiments
Procedure: as §1

[11] = biological target: T2, cloned human δ-opioid receptor; experiment: Inhibition of DPDPE-stimulated [35S]GTPγS binding; type: biochemical; conditions: antagonism of DPDPE-stimulated [35S]GTPγS binding, CHO cells; means ± SE, at least three experiments
Procedure: as §1

COc1ccc2c(c1)CN(C)[C@@](C)(C(=O)N[C@H](CN1CC[C@@](C)(c3cccc(O)c3)[C@@H](C)C1)C(C)C)C2 (as salt: hydrochloride) [Compound 8o, (3R)-7-Methoxy-N-[(1S)-1-{[(3R,4R)-4-(3-hydroxyphenyl)-3,4-dimethylpiperidin-1-yl]methyl}-2-methylpropyl]-2,3-dimethyl-1,2,3,4-tetrahydroisoquinoline-3-carboxamide]
melting point: 199 °C (dec.)

Oc1ccc2c3c1O[C@H]1c4[nH]c5c(c4C[C@@]4(O)[C@@H](C2)N(CC2CC2)CC[C@]314)C[C@@]1(O)[C@H]2Cc3ccc(O)c4c3[C@@]1(CCN2CC1CC1)[C@H]5O4 [Compound 1, nor-BNI]
fear and stress-induced responses [1]: dose-dependently reduce fear and stress-induced responses

COc1cccc([C@]2(C)CCN(C[C@@H](NC(=O)[C@H]3Cc4ccc(O)cc4CN3)C(C)C)C[C@@H]2C)c1 (as salt: hydrochloride) [Compound 8d, (3R)-7-Hydroxy-N-[(1S)-1-{[(3R,4R)-4-(3-methoxyphenyl)-3,4-dimethylpiperidin-1-yl]methyl}-2-methylpropyl]-1,2,3,4-tetrahydroisoquinoline-3-carboxamide]
melting point: > 220 °C (dec.)

CC[C@H](C)[C@@H](CN1CC[C@@](C)(c2cccc(OC)c2)[C@@H](C)C1)NC(=O)[C@H]1Cc2ccc(O)cc2CN1 (as salt: hydrochloride) [Compound 8f, (3R)-7-Hydroxy-N-[(1S,2S)-1-{[(3R,4R)-4-(3-methoxyphenyl)-3,4-dimethylpiperidin-1-yl]methyl}-2-methylbutanyl]-1,2,3,4-tetrahydroisoquinoline-3-carboxamide]
melting point: > 220 °C (dec.)

CC[C@H](C)[C@@H](CN1CC[C@@](C)(c2cccc(O)c2)[C@@H](C)C1)NC(=O)[C@H]1Cc2ccc(O)cc2CN1C (as salt: hydrochloride) [Compound 8j, (3R)-7-Hydroxy-N-[(1S,2S)-1-{[(3R,4R)-4-(3-hydroxyphenyl)-3,4-dimethylpiperidin-1-yl]methyl}-2-methylbutanyl]-2-methyl-1,2,3,4-tetrahydroisoquinoline-3-carboxamide]
melting point: 180 °C (dec.)

CC(C)[C@@H](CN1CC[C@@](C)(c2cccc(O)c2)[C@@H](C)C1)NC(=O)[C@H]1Cc2ccc(O)cc2CN1 [Compound 3, (3R)-7-hydroxy-N-((1S)-1-{[(3R,4R)-4-(3-hydroxyphenyl)-3,4-dimethyl-1-piperidinyl]methyl}-2-methylpropyl)-1,2,3,4-tetrahydro-3-isoquinolinecarboxamide]
prevention of stress-induced cocaine reinstatement of self-administration [2]: oral activity
potency at blocking κ-opioid agonist-induced activity [3]: more potent
κ, U69,593 Ke [4]: 0.02 nM
intrinsic activity at the κ opioid receptor [5]: none of the compounds displayed measurable intrinsic activity
intrinsic activity at the δ opioid receptor [6]: none of the compounds displayed measurable intrinsic activity
intrinsic activity at the μ opioid receptor [7]: none of the compounds displayed measurable intrinsic activity
fear and stress-induced responses [1]: dose-dependently reduce fear and stress-induced responses
Ke value at the κ-opioid receptor [8]: 0.02 nM
antagonism of the antinociceptive activity of enadoline [9]: oral activity

CCC(C)C(CN1CCC(C)(c2cccc(O)c2)C(C)C1)NC(=O)C1Cc2ccc(O)cc2CN1 (stereo not shown) [Compound 8a]
κ, U69,593 Ke [4]: 0.03 nM
κ, U69,593 Ke (nM) [4]: 0.03 ± 0.02^c nM
δ/κ ([4]; ratio of Ke values): 800
μ, DAMGO Ke (nM) [10]: 3 ± 1^c nM
potency at μ receptors compared to 3 ([10]; compared with 3): increased potency; also recorded: eight-fold increase in potency
Ke value at the κ-opioid receptor [8]: 0.03 nM
κ selectivity relative to the δ opioid receptor [8]: 800 fold
κ selectivity relative to the μ opioid receptor [8]: 100 fold
δ, DPDPE Ke (nM) [11]: 24 ± 4^c nM

CC[C@H](C)[C@@H](CN1CC[C@@](C)(c2cccc(OC)c2)[C@@H](C)C1)NC(=O)[C@@]1(C)Cc2ccc(O)cc2CN1 (as salt: hydrochloride) [Compound 8n, (3R)-7-Hydroxy-N-[(1S,2S)-1-{[(3R,4R)-4-(3-methoxyphenyl)-3,4-dimethylpiperidin-1-yl]methyl}-2-methylbutanyl)-3-methyl-1,2,3,4-tetrahydroisoquinoline-3-carboxamide]
melting point: 210 °C (dec.)

COc1cccc([C@]2(C)CCN(C[C@@H](NC(=O)[C@H]3Cc4ccc(O)cc4CN3C)C(C)C)C[C@@H]2C)c1 (as salt: hydrochloride) [Compound 8k, (3R)-7-Hydroxy-N-[(1S)-1-{[(3R,4R)-4-(3-methoxyphenyl)-3,4-dimethylpiperidin-1-yl]methyl}-2-methylpropyl]-2-methyl-1,2,3,4-tetrahydroisoquinoline-3-carboxamide]
melting point: 210 to 215 °C (dec.)

COc1ccc2c(c1)CNC(C(=O)NC(CN1CCC(C)(c3cccc(O)c3)C(C)C1)C(C)C)C2 (stereo not shown) [Compound 8b]
κ, U69,593 Ke [4]: 0.06 nM
κ, U69,593 Ke (nM) [4]: 0.06 ± 0.01^c nM
decrease in potency at the κ receptor relative to 3 ([4]; compared with 3): 3 fold
δ/κ ([4]; ratio of Ke values): 1970
μ/κ ([4]; ratio of Ke values, κ selectivity relative to μ): 857
μ, DAMGO Ke (nM) [10]: 51.4 ± 15^c nM
Ke value at the κ-opioid receptor [8]: 0.06 nM
fold less potent than 3 at the κ-opioid receptor [8]: 3 fold
κ selectivity relative to the δ opioid receptor [8]: 1970 fold
κ selectivity relative to the μ opioid receptor [8]: 857 fold
δ, DPDPE Ke (nM) [11]: 118 ± 45^c nM

COc1cccc([C@]2(C)CCN(C[C@@H](NC(=O)[C@@]3(C)Cc4ccc(O)cc4CN3)C(C)C)C[C@@H]2C)c1 (as salt: hydrochloride) [Compound 8h, (3R)-7-Hydroxy-N-[(1S)-1-{[(3R,4R)-4-(3-methoxyphenyl)-3,4-dimethylpiperidin-1-yl]methyl}-2-methylpropyl]-3-methyl-1,2,3,4-tetrahydroisoquinoline-3-carboxamide]
melting point: > 220 °C (dec.)

Reference: patent publication US20130158072A1, “KAPPA OPIOID RECEPTOR BINDING LIGANDS” (Research Triangle Institute, priority 2010, published 2013)
